Where two headings read alike, the source gives them in different places.
Columns and labels:
[1] = Hygroscopicity by dynamic vapor sorption (DVS); assay type: physicochemical
Text: DVS: A portion of the sample was loaded into a quartz sample holder and tested using DVS-Advantage system in two continuous adsorption/desorption cycles. The settings are described as follows:
Adsorption/desorption cycle 1: 50 to 95 to 0% RH;
Adsorption/desorption cycle 2: 0 to 95 to 0% RH;

in vivo = settings: dog
[2] = Phase 1 study: safety and tolerability in healthy subjects; assay type: in vivo, human
Text: Safety will be monitored throughout the study. Safety evaluations will include adverse event (AE) reporting, PEs, vital signs, 12-lead ECGs, clinical laboratory safety tests (including liver function tests (LFTs), total cholesterol, triglycerides, high-density lipoprotein (HDL), and low-density lipoprotein (LDL)) in addition to standard clinical chemistry, hematology, and urinalysis tests), review of concomitant medications/procedures, evaluation of wound healing, and pregnancy tests for female subjects.
All AEs will be monitored and recorded throughout the study from the time the informed consent form (ICF) is signed until study completion, and when made known to the Investigator within 28 days after the last dose of Compound 1 (and those serious adverse events (SAEs) made known to the Investigator at any time thereafter that are suspected of being related to IP). All concomitant medications and procedures will be reviewed and recorded from the time the subject signs the ICF until study completion. A follow-up visit (Part 1) or a follow-up phone call (Part 2) will be scheduled for all subjects. If a subject is discontinued from the study for any reason, an ET visit will be performed.
Part 1: To evaluate the safety of single and multiple oral doses of Compound 1; and Part 2: To evaluate the safety and tolerability of the formulated Compound 1 tablets when administered with food.

[3] = Solid state chemical stability under stress conditions (HPLC with UV detection); settings: for Chemical stability (open vial, 2 weeks): HPLC/UV
Description: Six vials were prepared for each salt. Two samples were stored in the refrigerator. The other four samples in open vials were stored under 4 stress conditions, respectively. […] One set of samples stored in the refrigerator were used to prepare the stock and standard solutions.

[4] = test system: UVB-induced phospho c-jun expression in skin; assay: Phospho c-Jun immunohistochemistry of UVB-irradiated skin biopsies: quantitative analysis (integrated optical density); assay type: in vivo, human
Text: A total of four skin biopsies were taken, one at baseline and one each on the sixth day of each treatment period.
On baseline (Day −1) and on the sixth day of each dosing period (Days 6, 12, and 18), the skin test sites were delineated on the subject's upper buttock between the beltline and the natal cleft on the right side. The right side of the buttock was divided into four different test sites, one site for 2×MED irradiation at baseline and each of the three dosing periods. Each test site was a minimum of 3 cm×3 cm. Subjects received 2×MED UV irradiation at baseline (Day −1) at approximately the same time that irradiation was scheduled on Days 6, 12, and 18, which was 2 hours postdose. Eight hours after UV irradiation (±10 minutes), a skin punch biopsy was taken from the UV exposure site. The biopsies were processed into tissue slides by a third party and analyzed by immunohistochemistry (IHC). This third party was blinded to the treatment periods (baseline and doses).
Phospho-c-Jun expression in biopsies was analyzed by IHC. Phospho-c-Jun IHC data were subjectively scored on a scale of 0 to 4 based on the intensity and number of epidermal keratinocyte nuclei stained within the tissue section by trained individuals blinded to treatment. The IHC was also analyzed by automated measurement of integrated optical density.
Phospho c-Jun IHC images were analyzed at Quintiles for integrated optical density of positive nuclear staining using Aperio imaging software (Leica Biosystems). The Phospho c-jun score (Optical Density Scale) reflects the percentage of nuclei with ‘3+’ staining intensity (the cutoff for determining positive staining) as determined by the Aperio nuclear phospho c-jun quantitative image analysis algorithm.

[5] = Phase 1 study Part 1: plasma pharmacokinetics after multiple oral doses of Compound 1 as AIC (QD×6 days) in healthy subjects; assay type: in vivo, human; settings: for AUC / concentration at 24 h / Cmax: geometric mean (geometric CV%); for AUC: read-out: AUC0-τ (τ = 24 hours); for concentration at 24 h: read-out: Cmin (plasma concentration at 24 hours postdose); for Cmax: healthy subjects
Description: Part 1 was an open label, multiple dose, three period, fixed sequence study to evaluate the effect of Compound 1 on JNK activity following UV irradiation.
On Day 1, after a minimum of an 8-hour fast, subjects received the first dose of Compound 1. All subjects received the following oral doses of Compound 1 in the fixed sequence below: • Treatment A: 60 mg Compound 1 as AIC, QD×6 days; • Treatment B: 160 mg Compound 1 as AIC, QD×6 days; and • Treatment C: 400 mg Compound 1 as AIC, QD×6 days.
All subjects received the following oral doses of Compound 1 as AIC: • Days 1 through 6: Treatment A: 60 mg Compound 1 AIC, QD×6 days; • Days 7 through 12: Treatment B: 160 mg Compound 1 AIC, QD×6 days; and • Days 13 through 18: Treatment C: 400 mg Compound 1 AIC, QD×6 days.
The treatments were administered in the morning following an overnight fast of at least 8 hours. All doses were administered with 240 mL of noncarbonated, room temperature water. Water was allowed as desired except for 1 hour before and 1 hour after drug administration. The first meal following the morning dose on the sixth day of each dosing period was 4 hours postdose. On all other dosing days, the next meal/snack was served after a minimum 2 hours after dosing.
Blood samples for Compound 1 plasma PK analysis were collected at the following time points on Days 6, 12, and 18: predose and 0.5, 2, 4, 6, 10, 12, and 24 hours postdose.
Concentrations of Compound 1 in plasma were measured using a validated liquid chromatography tandem mass spectrometry (LC-MS/MS) assay. In Part 2, concentrations of Compound 1 in whole blood were measured using a validated LC-MS/MS method.
Plasma and whole blood PK parameters were derived for Compound 1 by noncompartmental analysis. Actual sampling times were used in the calculation of PK parameters.
AUCτ: AUC from time zero to tau, where tau is the dosing interval.
Cmax: Maximum observed plasma concentration.
Cmin: Minimum observed plasma concentration.

[6] = human, plasma, Treatment A: 60 mg as AIC, oral QD×6 days, N=15
[7] = human, plasma, Treatment B: 160 mg as AIC, oral QD×6 days, N=15
[8] = human, plasma, Treatment C: 400 mg as AIC, oral QD×6 days, N=15

Hygroscopicity (80% RH, 25° C., cycle 1 sorption) ([1]; DVS water uptake, L-tartrate: hydrate, difference between 20% RH and 80% RH): 0.17%
hygroscopicity (sorption/desorption, in words) ([1]; DVS, 25° C.): not hygroscopic
AUC at 28 days (in vivo): 81200 ng·h/mL
Chemical stability (open vial, 2 weeks) ([3]; 80° C./75% RH): no change
Chemical stability (open vial, 2 weeks) ([3]; 80° C.): no change
% Remaining at 80° C. ([3]; solid state, open vial, 80° C., 2 weeks, HPLC with UV detection): 101.8%
% Remaining at 80° C./75% RH ([3]; solid state, open vial, 80° C./75% RH, 2 weeks, HPLC with UV detection): 100.8%
increase of systemic exposure (AUC and Cmax) with dose ([5]; dose increased from 60 mg to 400 mg, multiple oral doses): more than dose-proportional
half-life ([5]; human, plasma, oral, following multiple doses (60-400 mg QD), read-out: mean terminal half life): 14 to 21 h
AUC [5, 6]: 2290 ng·h/mL
concentration at 24 h [5, 6]: 22 ng/mL
Tmax ([5]; human, plasma, Treatment A: 60 mg as AIC, oral QD×6 days, median (minimum, maximum), N=15, read-out: Tmax): 1.95 h
AUC [5, 7]: 8560 ng·h/mL
concentration at 24 h [5, 7]: 65 ng/mL
Tmax ([5]; human, plasma, Treatment B: 160 mg as AIC, oral QD×6 days, median (minimum, maximum), N=15, read-out: Tmax): 1.95 h
AUC [5, 8]: 31300 ng·h/mL
concentration at 24 h [5, 8]: 212 ng/mL
Tmax ([5]; human, plasma, Treatment C: 400 mg as AIC, oral QD×6 days, median (minimum, maximum), N=15, read-out: Tmax): 1.97 h
Tmax ([5]; human, plasma, following single or multiple oral doses at the dose levels evaluated, postdose, read-out: median Tmax): 1 to 4 h
Cmax ([5]; human, Treatment A: 60 mg as AIC, oral QD×6 days, plasma, N=15): 419 ng/mL
Cmax ([5]; human, Treatment B: 160 mg as AIC, oral QD×6 days, plasma, N=15): 1460 ng/mL
Cmax ([5]; human, Treatment C: 400 mg as AIC, oral QD×6 days, plasma, N=15): 4460 ng/mL
Structure (SMILES): C[C@@H]1CC[C@@H](Nc2nc(NC(C)(C)C)ncc2C(N)=O)C[C@H]1O [Compound 1, 2-(tert-butylamino)-4-((1R,3R,4R)-3-hydroxy-4-methylcyclohexylamino)-pyrimidine-5-carboxamide]
subjects reporting TEAEs ([2]; 11 of 28 subjects, 17 TEAEs, Parts 1 and 2 overall): 39.3%
clinical laboratory evaluations, vital sign measurements, ECGs ([2]; Parts 1 and 2): No clinically significant changes or findings
subjects with an SAE or severe TEAE ([2]; Parts 1 and 2 overall, 28 subjects): No subjects
safety and tolerability ([2]; multiple doses 60, 160 and 400 mg AIC QD for 6 days): safe and well tolerated
diarrhea suspected of being related to Compound 1 ([2]; of 28 subjects): 2 subjects
nausea suspected of being related to Compound 1 ([2]; of 28 subjects): 4 subjects
safety and tolerability ([2]; single doses of 200 mg as formulated tablets (fed and fasted) and AIC (fasted)): safe and well tolerated
change from baseline in phospho c-jun staining (integrated optical density) ([4]; 60 mg QD×6 days, biopsy 8 hours after 2×MED UVB): not decreased
percentage of subjects with a decrease in optical density score compared to baseline ([4]; 60 mg dose (4/14)): 29%
decrease from baseline in phospho c-jun staining (integrated optical density) ([4]; 160 mg QD×6 days, biopsy 8 hours after 2×MED UVB, p=0.18): 7.5%
percentage of subjects with a decrease in optical density score compared to baseline ([4]; 160 mg dose (11/13)): 85%
decrease from baseline in phospho c-jun staining (integrated optical density) ([4]; 400 mg QD×6 days, biopsy 8 hours after 2×MED UVB, p<0.0001): 29.5%
percentage of subjects with a decrease in optical density score compared to baseline ([4]; 400 mg dose (13/13)): 100%
inhibition of UVB-induced phospho c-jun expression in skin ([4]; 60, 160, 400 mg QD×6 days, automated quantitative image analysis): dose-dependent manner
